{"source": "patent US11771692B2", "about": "“N-hydroxyethyl didehydroazapodophyllotoxins as GBP1 inhibitors and methods of overcoming treatment resistance in cancer” (The Board of Trustees of the Leland Stanford Junior …, priority 2018, dated 2023)", "key": {"GBP1": {"test_system": "GBP1", "test": "Immunoblotting and cycloheximide chase of GBP1 protein in SCC-90 HNC cells", "type": "cell-based", "source_text": "The potential for GBP1 inhibition and radiosensitzation in head and neck cancer cells was also investigated."}, "[1]": {"test": "In vivo pharmacokinetics, plasma concentration by LCMS", "conditions": "C57BL/6, mouse, C57BL6 female mice, single 10 mg/kg IP", "protocol": "FIG. 7, panel A illustrates in vivo PK studies, C57BL/6 mice. Drug concentration in plasma was quantified at different time points using LCMS after a single IP injection of SU093. FIG. 7, panel B illustrates the drug concentration in harvested ovaries and liver of C57BL/6 mice after 14 days of administration with SU093 (100 mg/kg) by daily IP injection.\nTo investigate the pharmacokinetics and toxicity of the subject GBP1 inhibitors, in vivo pharmacokinetic studies with SU093 were conducted and the drug concentration in mice plasma at different time points after injection was determined (e.g. after 5, 10, 30, 60, 120, 360 minutes after injection). Non-tumor-bearing C57BL6 female mice (n=3/group of each time point) were used for these studies and the drug was administered in a single dose of 10 mg/kg intrepertoneally (IP) at different time points. After each time point 150 microliters of blood was withdraw from retro orbital sinus from the respective group of anesthetized (isoflurane) mice. Plasma was separated from each blood sample and mixed with an equal volume of acetonitrile (w/v). Precipitated protein was separated by centrifugation at 12,000 RPM for 10 min at 4° C. Clear supernatant was analyzed for quantification of SU093 using liquid chromatography mass spectroscopy (LCMS)."}, "[2]": {"test_system": "Luciferase-tagged OVCAR8 cells", "test": "Viability of luciferase-tagged OVCAR8 cells in combination with radiation or paclitaxel", "type": "cell-based", "protocol": "FIG. 5, panels A-E: illustrates the sensitizing effect of SU093 on the viability of luciferase-tagged OVCAR8 cells in combination with radiation and chemotherapy treatment. FIG. 5, panel A graphs cells that were pre-treated with 0, 0.5 and 1 nM SU093 for 24 h followed by 0, 5 & 10 Gy radiation treatment and incubated for 96 h. FIG. 5, panel B illustrates cell cycle analysis of SU093 and radiation combination treatment in OVCAR8. FIG. 5, panel C illustrates the effect of SU093 on OVCAR8 cells in hypoxic condition (0.5% O2) FIG. 5, panel D graphs hypoxic cells that were pre-treated with SU093 for 24 h followed by 5 and 10 Gy radiation.\nIt has been previously established that GBP1 expression has a definitive role in the resistance towards radiation therapy and taxane-based chemotherapy. The GBP1 inhibitor SU093 was tested in combination with radiation and paclitaxel (a well known taxane-based chemotherapeutic drug) for its potential in overcoming radiation therapy and taxane resistance. […] A cell cycle analysis experiment for radiation was performed with SU093 and combination treatment (FIG. 5, panel B). […] One of the mechanisms through which a drug can sensitize the effect of radiation is its ability to block G2/M phase of the cell cycle (Leonard, C. E.; Chan, D. C.; Chou, T. C.; Kumar, R.; Bunn, P. A., Paclitaxel enhances in vitro radiosensitivity of squamous carcinoma cell lines of the head and neck. Cancer Research 1996, 56 (22), 5198-5204). G2/M is the most radiosensitive phase in the cell cycle and arresting the cell population in this phase would likely sensitize them to the next cycle of radiation and enhance cell death (Pawlik, T. M.; Keyomarsi, K., Role of cell cycle in mediating sensitivity to radiotherapy. International Journal of Radiation Oncology Biology Physics 2004, 59 (4), 928-942; Nambiar, D. K.; Rajamani, P.; Deep, G.; Jain, A. K.; Agarwal, R.; Singh, R. P., Silibinin Preferentially Radiosensitizes Prostate Cancer by Inhibiting DNA Repair Signaling. Molecular Cancer Therapeutics 2015, 14 (12), 2722-2734). […] Bearing in mind that solid tumors create a hypoxic microenvironment, these findings provided a very compelling case for the clinical application of the subject GBP1 inhibitors as a treatment for re-sensitizing radiation therapy in refractory cancers.\nThe cytotoxic effect of SU093 and paclitaxel combination treatment was also studied (FIG. 5, panel E)."}, "OVCAR8 cells": {"test_system": "OVCAR8 cells", "test": "Active mitochondrial mass (MitoTracker Red CMXRos) in OVCAR8 cells", "type": "cell-based", "source_text": "FIG. 4, panel A illustrates a histogram of cell cycle distribution of propidium iodide (PI)-stained cells. […] FIG. 4, panel C illustrates the effect of SU093 on cell cycle and cell death regulators analyzed by immunostaining. FIG. 4, panel D illustrates mitochondria stained with MitoTracker Red CMXRos and visualized by confocal microscopy indicating mitochondrial dysfunction in OVCAR8 cells. FIG. 4, panel E illustrates the effect of SU093 on active mitochondrial mass in OVCAR8 cells.\n(§1) Furthermore, OVCAR8 cells with overexpressed (OV) and knockdown (KD) of GBP1 gene were created (FIG. 3, panel D) and cell viability experiments were performed on GBP1-WT (wild-type), GBP1-OV and GBP1-KD OVCAR8 cells at different doses of SU093."}, "GBP1 and PIM1": {"test_system": "GBP1 and PIM1", "test": "Immunoblotting of GBP1 and PIM1 expression in OVCAR8 cells", "type": "cell-based"}, "[3]": {"test_system": "GBP1-OV and GBP1-KD OVCAR8 cells", "test": "MTT cell viability in GBP1-WT, GBP1-OV and GBP1-KD OVCAR8 cells", "type": "cell-based", "source_text": "FIG. 3, panels A-E. FIG. 3, panel A illustrates the effects of SU093 on survival of human normal HEK293 cell line and ovarian cancer cell lines OVCAR8 & SKOV3 cells via MTT assay. FIG. 3, panel B illustrates the effect of SU093 on GBP1 and PIM1 expression in OVCAR8 cells. […] FIG. 3, panel D illustrates quantification of overexpression and knockdown of GBP1 gene in stably transfected OVCAR8 cells. FIG. 3, panel E illustrates cytotoxicity of SU093 as evaluated in GBP1-OV, GBP1-WT and GBP1-KD OVCAR8 via MTT assay.\nas §1"}, "ID-8 tumor xenograft": {"test_system": "ID-8 tumor xenograft", "test": "Ovarian ID-8 tumor xenograft in C57BL6 mice", "type": "in vivo", "source_text": "An immunocompetent syngeneic mouse model was used to evaluate in vivo antitumor effect of SU093 and SU056 (also referred to herein as Compound (I)) for ovarian cancer. C57BL6 female mice (n=5/group) were subcutaneously injected in the right flank with 5×10^6 ID-8 cells mixed with matrigel. From the day following xenograft implantation, mice were monitored regularly for tumor growth and once the tumors reached approximately 100 mm^3, the mice were randomly divided into three groups and respective treatments were given.\nGroup I (vehicle control): 100 μl of 10% PEG300 (w/v) in saline;\nGroup II: mice treated with SU093 (20 mg/kg); and\nGroup III: mice treated with SU056 (20 mg/kg).\nDoses were administered intraperitoneally (IP) for 7 days/week for 42 days and the mice were sacrificed on day 43. Tumor sizes were measured twice weekly using digital caliper and tumor volume was calculated by the formula: 0.5236 L1 (L2)^2, where L1 is long diameter, and L2 is short diameter."}, "[4]": {"conditions": "ID-8, 20 mg/kg IP daily, 42 days, vs control"}}, "note": "“Also recorded” adds a separate entry of the source."}
{"smiles": "COc1ccc2c(c1)N(CCO)C1=C(C(=O)OC1)C2c1ccccc1", "note": "(stereo not drawn) [SU093]", "values": [{"measurement": "GBP1 protein degradation, cyclohexamide chase", "setting": "GBP1; SCC-90", "result": "degradation of GBP1 protein and reduction of its half-life"}, {"measurement": "GBP1 protein expression", "setting": "GBP1; SCC-90, western blot, 24 h", "result": "inhibition in GBP1 expression; also recorded: inhibited GBP1 protein expression"}, {"measurement": "Cmax", "setting": "[1]", "result": 1600, "unit": "ng/mL"}, {"measurement": "Tmax", "setting": "[1]", "result": 5, "unit": "min"}, {"measurement": "half-life", "setting": "[1]", "result": 60, "unit": "min"}, {"measurement": "cell viability, pretreatment with SU093 then radiation", "setting": "[2]; 5 and 10 Gy radiation", "result": "significant synergistic effect"}, {"measurement": "cytotoxicity in hypoxic conditions", "setting": "[2]; OVCAR8, hypoxic (0.5% O2)", "result": "intrinsic cytotoxic effects"}, {"measurement": "cytotoxic effect of SU093 and paclitaxel combination", "setting": "[2]; SU093 0.5 nM 24 h then paclitaxel 1, 5, 10 nM", "result": "synergistic cytotoxic effect; also recorded: enhanced cytotoxic effect as compared to paclitaxel alone"}, {"measurement": "cell death, co-treatment with radiotherapy in hypoxia", "setting": "[2]; hypoxic OVCAR8, SU093 plus 5 and 10 Gy", "result": "significantly potentiated cell death"}, {"measurement": "active mitochondrial mass", "setting": "OVCAR8 cells", "result": "significantly diminished active mitochondrial mass"}, {"measurement": "GBP1 and PIM1 expression", "setting": "GBP1 and PIM1", "result": "inhibits GBP1 and PIM1 expressions in a dose-dependent manner"}, {"measurement": "cytotoxicity compared to GBP1-WT", "setting": "[3]; GBP1-KD OVCAR8 cells", "result": "enhanced cytotoxicity"}, {"measurement": "cytotoxicity compared to GBP1-WT", "setting": "[3]; GBP1-OV OVCAR8 cells", "result": "reduced cytotoxicity"}, {"measurement": "gross sign of toxicity (body weight and diet consumption)", "setting": "ID-8 tumor xenograft; 20 mg/kg IP daily, 42 days", "result": "did not show any gross sign of toxicity"}, {"measurement": "liver toxicity parameters (AST, ALT, Alkaline phosphatase)", "setting": "ID-8 tumor xenograft; ELISA, end of 42 days, vs control", "result": "No significant difference"}, {"measurement": "reduction in tumor volume", "setting": "ID-8 tumor xenograft; [4]", "result": 37.5, "unit": "%"}, {"measurement": "tumor weight decreased", "setting": "ID-8 tumor xenograft; [4]", "result": 39.65, "unit": "%"}, {"measurement": "tumor volume/mouse", "setting": "ID-8 tumor xenograft; ID-8, 20 mg/kg IP daily, end of 6 weeks", "result": "318.81±26.09", "unit": "mm^3"}]}
